Experimental data taken from patent US9988378B2, “1 H-pyrazole and 4,5-disubstituted thiazole inhibitors of SYK” (Hoffmann-La Roche Inc., priority 2012, dated 2018).

Columns and labels:
[1] = target: T1, recombinant human SYK360-635 (Homo sapiens, UniProt P43405); assay: SYK kinase assay, 33P ATP filtration (ENZYME_FILTRATION_IC50); format: biochemical; conditions: SYK aa 360-635 0.5 nM, ATP 20 μM, peptide 5 μM, 30° C. 15 min
T1 construct: truncated construct of Spleen Tyrosine Kinase aa 360-635; made in house
Protocol: Determination of IC50 of Spleen Tyrosine Kinase (SYK) Inhibition:
SYK kinase assay is a standard kinase assay adapted to a 96 well plate format. This assay is performed in 96-well format for IC50 determination with […] which represented 10 half log dilutions and a 40 μL reaction volume. The assay measures the incorporation of radiolabeled ^33P ATP into an N-terminally biotinylated peptide substrate, derived from naturally occurring phosphoacceptor consensus sequence (Biotin-11aa DY*E). Phosphorylated products were detected upon termination of reactions with EDTA and the addition of Streptavidin coated beads. Representative results are in Table II above.
Assay plates: 96-well MultiScreen 0.65 um filter plates (Millipore Cat. No.: MADVNOB10) Streptavidin coated beads: Streptavidin Sepharose™, suspension 5.0 mL, in 50 mM EDTA/PBS diluted (1:100), (Amersham, Cat. No.: 17-5113-01)
Compounds: 10 mM in 100% dimethylsulfoxide (DMSO), final conc.: compound 0.003-100 uM in 10% DMSO
Enzyme: SYK RPA purified, truncated construct of Spleen Tyrosine Kinase aa 360-635, stock solution 1 mg/mL, MW: 31.2 KDa, final conc.:0.0005 μM.
Peptide 1: biotinylated peptide is derived from a naturally occurring phosphor-acceptor consensus sequence (Biotin-EPEGDYEEVLE), special order from QCB, stock solution 20 mM, final conc.: 5.0 μM.
ATP: Adenosine-5′-triphosphate 20 mM, (ROCHE Cat. No.: 93202720), final concentration: 20 μM
Buffer: HEPES: 2-Hydroxyethyl piperazine-2-ethanesulfonic acid (Sigma, Cat. No.: H-3375) final concentration: 50 mM HEPES pH7.5
BSA: Bovine Serum Albumin Fraction V, fatty acid free (Roche Diagnostics GmbH, Cat. No. 9100221) diluted to a final concentration of 0.1%
EDTA: EDTA stock solution 500 mM, (GIBCO, Cat. No.: 15575-038) final concentration: 0.1 mM
DTT: 1,4-Dithiothreitol (Roche Diagnostics GmbH, Cat. No.: 197777), final conc.: 1 mM MgCl2×6H2O: MERCK, Cat. No.: 105833.1000, final concentration: 10 mM
Assay Dilution Buffer (ADB): 50 mM HEPES, 0.1 mM EGTA, 0.1 mM Na Vanadate, 0.1 mM β-glycerophosphate, 10 mM MgCl2, 1 mM DTT, 0.1% BSA, pH 7.5
Bead wash buffer: 10 g/L PBS (Phosphate buffered saline) with 2M NaCl+1% phosphoric acid.
In 40 μL volume, 26 μL of ADB diluted, purified recombinant human SYK360-635 [0.5 nM] was mixed with 4 μL of 10× concentrations of the test compounds, [usually 100 μM-0.003 μM] in [10%] DMSO and the mixture was incubated for 10 min at RT.
The kinase reaction was initiated by the addition of 10 μL 4× substrate cocktail containing the DYE peptide substrate [0 or 5 μM], ATP [20 μM] and ^33PγATP [2 μCi/rxn]. After incubation at 30° C. for 15 min, the reaction was terminated by the transfer of 25 μL pf the reaction sample to a 96 well 0.65 μm Millipore MADVNOB membrane/plate containing 200 μL 5 mM EDTA and 20% Streptavidine coated beads in PBS.
The unbound radionucleotides were washed under vacuum with 3×250 μL 2M NaCl; 2×250 μL 2M NaCl+1% phosphoric acid; 1×250 μL H2O. After the last wash membrane/plates were transferred to an adaptor plate, heat dried for 15 min at 60° C., and 50 μL scintillation cocktail was added to each well and 4 h later the amount of radioactivity was counted in a top counter.
The percent inhibition was calculated based on the uninhibited enzyme rate: % Inhibition=100/(1+(IC50/Inhibitor conc)^n)
The IC50 was calculated using a non-linear curve fit with XLfit software (ID Business Solution Ltd., Guilford, Surrey, UK).

RAMOS = assay: RAMOS_V2_IC50; format: cell-based; conditions: Homo sapiens
human whole blood = assay: IC50: human whole blood; format: cell-based

Structure (SMILES) | IC50 [1] [nM] | IC50 (RAMOS) [nM] | IC50 (human whole blood) [nM]
O=C(Nc1c[nH]nc1-c1nc2ccccc2[nH]1)C1CCCC1 [Compound I-32, Cyclopentanecarboxylic acid [3-(1H-benzoimidazol-2-yl)-1H-pyrazol-4-yl]-amide] | 38.9 | 615 | 5270
CC(C)(C)NC(=O)c1c[nH]nc1-c1nc2ccccc2s1 [Compound I-8, 3-(benzo[d]thiazol-2-yl)-N-tert-butyl-1H-pyrazole-4-carboxamide] | 67 | 146 | 46700
CC(C)(CO)NC(=O)c1c[nH]nc1-c1nc2ccccc2s1 [Compound I-7, 3-(benzo[d]thiazol-2-yl)-N-(1-hydroxy-2-methylpropan-2-yl)-1H-pyrazole-4-carboxamide] | 562 | 552 | 20400
CCOC(=O)c1c[nH]nc1-c1nc(-c2ccccc2)cs1 [Compound I-13, ethyl 3-(4-phenylthiazol-2-yl)-1H-pyrazole-4-carboxylate] | > 10000 | > 34100 | > 50000
O=C(NC1CCOCC1)c1c[nH]nc1-c1nc(-c2ccccc2)cs1 [Compound I-21, 3-(4-phenylthiazol-2-yl)-N-(tetrahydro-2H-pyran-4-yl)-1H-pyrazole-4-carboxamide] | 209 | 19100 | > 50000
CC(C)(C)NC(=O)c1c[nH]nc1-c1nc(-c2ccccc2)cs1 [Compound I-16, N-tert-butyl-3-(4-phenylthiazol-2-yl)-1H-pyrazole-4-carboxamide] | 2410 | 12200 | > 50000
CC(C)C(=O)Nc1c[nH]nc1-c1nc2ccccc2[nH]1 [Compound I-30, N-[3-(1H-Benzoimidazol-2-yl)-1H-pyrazoll-4-yl]-isobutyramide] | 60 | 1020 | 2290
CC(=O)OCC(C)(C)C(=O)Nc1c[nH]nc1-c1nc2ccccc2[nH]1 [Compound I-34, Acetic acid 2-[3-(1H-benzoimidazol-2-yl)-1H-pyrazol-4-ylcarbamoyl]-2-methyl-propyl ester] | 278 | 6570 | 4170
CC(C)(CO)C(=O)Nc1c[nH]nc1-c1nc2ccccc2[nH]1 [Compound I-35, N-[3-(1H-Benzoimidazol-2-yl)-1H-pyrazol-4-yl]-3-hydroxy-2,2-dimethyl-propionamide] | 54.9 | 920 | 1920
C[C@@H](CO)NC(=O)c1c[nH]nc1-c1nc2ccccc2s1 [Compound I-12, (S)-3-(benzo[d]thiazol-2-yl)-N-(1-hydroxypropan-2-yl)-1H-pyrazole-4-carboxamide] | 1690 | 4070 | 13100
CC(C)NC(=O)c1c[nH]nc1-c1nc(-c2ccccc2)cs1 [Compound I-17, N-isopropyl-3-(4-phenylthiazol-2-yl)-1H-pyrazole-4-carboxamide] | 761 | 3540 | > 50000
O=C(Nc1c[nH]nc1-c1nc2ccccc2[nH]1)C1CCOCC1 [Compound I-33, Tetrahydro-pyran-4-carboxylic acid [3-(1H-benzoimidazol-2-yl)-1H-pyrazol-4-yl]-amide] | 105 | 3080 | 2500
CC(C)(C)NC(=O)c1c[nH]nc1-c1nc2c(s1)CCC2 [Compound I-18, N-tert-butyl-3-(5,6-dihydro-4H-cyclopenta[d]thiazol-2-yl)-1H-pyrazole-4-carboxamide] | 6120 | > 34100 | > 50000
CC(C)(C)C(=O)Nc1c[nH]nc1-c1nc2ccccc2[nH]1 [Compound I-31, N-[3-(1H-Benzoimidazol-2-yl)-1H-pyrazol-4-yl]-2,2-dimethyl-propionamide] | 21.4 | 350 | 2600
